In brackets after ≈: the same amount, converted by molar mass.
Columns and labels:
Staphylococcus aureus = experiment: microbe, parasite or virus in culture; type: functional, ATCC 25923; conditions: for MIC: Staphylococcus aureus, ATCC 25923, 24 h
Description: Antibacterial activity against Staphylococcus aureus ATCC 25923 after 24 hrs by disc diffusion method

Escherichia coli = experiment: microbe, parasite or virus in culture; type: functional, ATCC 25922; conditions: for MIC: Escherichia coli, ATCC 25922, 24 h
Description: Antibacterial activity against Escherichia coli ATCC 25922 after 24 hrs by disc diffusion method

Pseudomonas aeruginosa = experiment: microbe, parasite or virus in culture; type: functional, ATCC 27853; conditions: for MIC: Pseudomonas aeruginosa, ATCC 27853, 24 h
Description: Antibacterial activity against Pseudomonas aeruginosa ATCC 27853 after 24 hrs by disc diffusion method

Klebsiella pneumoniae = experiment: Antibacterial activity against Klebsiella pneumoniae after 24 hrs by disc diffusion method; type: functional; conditions: for MIC: Klebsiella pneumoniae, 24 h
Streptococcus pyogenes = experiment: Antibacterial activity against Streptococcus pyogenes after 24 hrs by disc diffusion method; type: functional; conditions: for MIC: Streptococcus pyogenes, 24 h
Aspergillus flavus = experiment: Antifungal activity against Aspergillus flavus NCIM no. 524 after 3 to 4 days by serial plate dilution method; type: functional; conditions: for MIC: Aspergillus flavus
Aspergillus fumigatus = experiment: Antifungal activity against Aspergillus fumigatus NCIM no. 902 after 3 to 4 days by serial plate dilution method; type: functional; conditions: for MIC: Aspergillus fumigatus
Talaromyces marneffei = experiment: Antifungal activity against Penicillium marneffei after 3 to 4 days by serial plate dilution method; type: functional; conditions: for MIC: Talaromyces marneffei
Candida albicans = experiment: Antifungal activity against Candida albicans NCIM no. 300 after 3 to 4 days by serial plate dilution method; type: functional; conditions: for MIC: Candida albicans
Trichophyton benhamiae = experiment: Antifungal activity against Trichophyton mentagrophytes after 3 to 4 days by serial plate dilution method; type: functional, Arthroderma benhamiae; conditions: for MIC: Trichophyton benhamiae

| SMILES | inhibition zone (IZ) (Staphylococcus aureus) | inhibition zone (IZ) (Escherichia coli) | MIC (Escherichia coli) | inhibition zone (IZ) (Pseudomonas aeruginosa) | inhibition zone (IZ) (Klebsiella pneumoniae) | MIC (Klebsiella pneumoniae) | inhibition zone (IZ) (Streptococcus pyogenes) | MIC (Streptococcus pyogenes) | MIC (Aspergillus flavus) | MIC (Staphylococcus aureus) | MIC (Pseudomonas aeruginosa) | MIC (Aspergillus fumigatus) | inhibition zone (IZ) (Talaromyces marneffei) | MIC (Talaromyces marneffei) | MIC (Candida albicans) | inhibition zone (IZ) (Aspergillus flavus) | inhibition zone (IZ) (Aspergillus fumigatus) | inhibition zone (IZ) (Trichophyton benhamiae) | MIC (Trichophyton benhamiae) | inhibition zone (IZ) (Candida albicans) |
| --- | --- | --- | --- | --- | --- | --- | --- | --- | --- | --- | --- | --- | --- | --- | --- | --- | --- | --- | --- | --- |
| O=C(O)c1cn(C2CC2)c2cc(N3CCNCC3)c(F)cc2c1=O [CIPROFLOXACIN] | 19 mm | 18 mm | 12.5 µg/mL (≈ 37.7 µM) | 25 mm | 20 mm | 6.25 µg/mL (≈ 18.9 µM) | 20 mm | 12.5 µg/mL (≈ 37.7 µM) | – | – | – | – | – | – | – | – | – | – | – | – |
| O=C(COc1ccc(Cl)cc1)N1N=C(c2ccc(Cl)cc2Cl)CC1(O)c1cc(F)c(Cl)cc1Cl (configuration not stated) | – | – | > 100 µg/mL | – | – | > 100 µg/mL | – | > 100 µg/mL | > 100 µg/mL | > 100 µg/mL | > 100 µg/mL | > 100 µg/mL | 10 mm | 25 µg/mL (≈ 44.4 µM) | > 100 µg/mL | – | – | – | – | – |
| O=C(COc1ccc(Cl)cc1)N1N=C(c2ccc(Cl)cc2)CC1(O)c1cc(F)c(Cl)cc1Cl (configuration not stated) | 18 mm | 18 mm | 12.5 µg/mL (≈ 23.7 µM) | 21 mm | 19 mm | 6.25 µg/mL (≈ 11.8 µM) | 20 mm | 12.5 µg/mL (≈ 23.7 µM) | 12.5 µg/mL (≈ 23.7 µM) | 6.25 µg/mL (≈ 11.8 µM) | 6.25 µg/mL (≈ 11.8 µM) | 6.25 µg/mL (≈ 11.8 µM) | 18 mm | 6.25 µg/mL (≈ 11.8 µM) | 12.5 µg/mL (≈ 23.7 µM) | 16 mm | 18 mm | 19 mm | 6.25 µg/mL (≈ 11.8 µM) | 20 mm |
| COc1ccc(C2=NN(C(=O)COc3ccc(Cl)cc3)C(O)(c3cc(F)c(Cl)cc3Cl)C2)cc1OC (configuration not stated) | – | 8 mm | 25 µg/mL (≈ 45.1 µM) | – | – | > 100 µg/mL | 10 mm | 25 µg/mL (≈ 45.1 µM) | 25 µg/mL (≈ 45.1 µM) | > 100 µg/mL | > 100 µg/mL | > 100 µg/mL | – | > 100 µg/mL | 25 µg/mL (≈ 45.1 µM) | 9 mm | – | – | > 100 µg/mL | 10 mm |
| COc1ccc(C2=NN(C(=O)COc3ccc(C)cc3)C(O)(c3cc(F)c(Cl)cc3Cl)C2)cc1 (configuration not stated) | – | – | > 100 µg/mL | 10 mm | – | > 100 µg/mL | – | > 100 µg/mL | > 100 µg/mL | > 100 µg/mL | 25 µg/mL (≈ 49.7 µM) | 12.5 µg/mL (≈ 24.8 µM) | 12 mm | 12.5 µg/mL (≈ 24.8 µM) | > 100 µg/mL | – | 12 mm | 10 mm | 25 µg/mL (≈ 49.7 µM) | – |
| OC(Cn1cncn1)(Cn1cncn1)c1ccc(F)cc1F [FLUCONAZOLE] | – | – | – | – | – | – | – | – | 12.5 µg/mL (≈ 40.8 µM) | – | – | 6.25 µg/mL (≈ 20.4 µM) | 21 mm | 6.25 µg/mL (≈ 20.4 µM) | 6.25 µg/mL (≈ 20.4 µM) | 18 mm | 22 mm | 20 mm | 6.25 µg/mL (≈ 20.4 µM) | 20 mm |
| O=C(COc1ccc(Cl)cc1)N1N=C(c2ccccc2)CC1(O)c1cc(F)c(Cl)cc1Cl (configuration not stated) | 14 mm | – | > 100 µg/mL | – | 10 mm | 25 µg/mL (≈ 50.6 µM) | – | > 100 µg/mL | 25 µg/mL (≈ 50.6 µM) | 12.5 µg/mL (≈ 25.3 µM) | > 100 µg/mL | 12.5 µg/mL (≈ 25.3 µM) | 10 mm | 25 µg/mL (≈ 50.6 µM) | > 100 µg/mL | 9 mm | 14 mm | 7 mm | 25 µg/mL (≈ 50.6 µM) | – |
| COc1ccc(C2=NN(C(=O)COc3ccc(C)cc3)C(O)(c3cc(F)c(Cl)cc3Cl)C2)cc1OC (configuration not stated) | – | 16 mm | 12.5 µg/mL (≈ 23.4 µM) | 23 mm | – | > 100 µg/mL | – | > 100 µg/mL | 25 µg/mL (≈ 46.9 µM) | > 100 µg/mL | 6.25 µg/mL (≈ 11.7 µM) | > 100 µg/mL | – | > 100 µg/mL | > 100 µg/mL | 10 mm | – | 23 mm | 6.25 µg/mL (≈ 11.7 µM) | – |
| O=C(COc1ccc(Cl)cc1Cl)N1N=C(c2ccc(Cl)cc2Cl)CC1(O)c1cc(F)c(Cl)cc1Cl (configuration not stated) | – | 17 mm | 12.5 µg/mL (≈ 20.9 µM) | 10 mm | – | > 100 µg/mL | – | > 100 µg/mL | 25 µg/mL (≈ 41.9 µM) | > 100 µg/mL | 25 µg/mL (≈ 41.9 µM) | > 100 µg/mL | – | > 100 µg/mL | > 100 µg/mL | 12 mm | – | 10 mm | 25 µg/mL (≈ 41.9 µM) | – |
| O=C(COc1ccc(Cl)cc1Cl)N1N=C(c2ccccc2)CC1(O)c1cc(F)c(Cl)cc1Cl (configuration not stated) | 15 mm | 17 mm | 12.5 µg/mL (≈ 23.7 µM) | 19 mm | 16 mm | 6.25 µg/mL (≈ 11.8 µM) | 15 mm | 12.5 µg/mL (≈ 23.7 µM) | 12.5 µg/mL (≈ 23.7 µM) | 6.25 µg/mL (≈ 11.8 µM) | 6.25 µg/mL (≈ 11.8 µM) | 12.5 µg/mL (≈ 23.7 µM) | 15 mm | 6.25 µg/mL (≈ 11.8 µM) | 25 µg/mL (≈ 47.3 µM) | 15 mm | 13 mm | 11 mm | 25 µg/mL (≈ 47.3 µM) | 10 mm |
| Cc1ccc(OCC(=O)N2N=C(c3ccc(Cl)cc3)CC2(O)c2cc(F)c(Cl)cc2Cl)cc1 (configuration not stated) | 19 mm | 17 mm | 12.5 µg/mL (≈ 24.6 µM) | 24 mm | 18 mm | 6.25 µg/mL (≈ 12.3 µM) | 18 mm | 12.5 µg/mL (≈ 24.6 µM) | 12.5 µg/mL (≈ 24.6 µM) | 6.25 µg/mL (≈ 12.3 µM) | 6.25 µg/mL (≈ 12.3 µM) | 6.25 µg/mL (≈ 12.3 µM) | 17 mm | 6.25 µg/mL (≈ 12.3 µM) | 12.5 µg/mL (≈ 24.6 µM) | 15 mm | 19 mm | 20 mm | 6.25 µg/mL (≈ 12.3 µM) | 19 mm |
| COc1ccc(C2=NN(C(=O)COc3ccc(Cl)cc3Cl)C(O)(c3cc(F)c(Cl)cc3Cl)C2)cc1 (configuration not stated) | 16 mm | 16 mm | 12.5 µg/mL (≈ 22.4 µM) | 21 mm | 16 mm | 12.5 µg/mL (≈ 22.4 µM) | 19 mm | 12.5 µg/mL (≈ 22.4 µM) | 12.5 µg/mL (≈ 22.4 µM) | 6.25 µg/mL (≈ 11.2 µM) | 6.25 µg/mL (≈ 11.2 µM) | 6.25 µg/mL (≈ 11.2 µM) | 20 mm | 6.25 µg/mL (≈ 11.2 µM) | 17 µg/mL (≈ 30.5 µM) | 16 mm | 19 mm | 18 mm | 6.25 µg/mL (≈ 11.2 µM) | 12.5 mm |
| Cc1ccc(OCC(=O)N2N=C(c3ccccc3)CC2(O)c2cc(F)c(Cl)cc2Cl)cc1 (configuration not stated) | 17 mm | 15 mm | 12.5 µg/mL (≈ 26.4 µM) | 18 mm | 18 mm | 6.25 µg/mL (≈ 13.2 µM) | 17 mm | 12.5 µg/mL (≈ 26.4 µM) | 25 µg/mL (≈ 52.8 µM) | 6.25 µg/mL (≈ 13.2 µM) | 6.25 µg/mL (≈ 13.2 µM) | 12.5 µg/mL (≈ 26.4 µM) | 12 mm | 12.5 µg/mL (≈ 26.4 µM) | 12.5 µg/mL (≈ 26.4 µM) | 11 mm | 11 mm | 10 mm | 25 µg/mL (≈ 52.8 µM) | 15 mm |
| Cc1ccc(OCC(=O)N2N=C(c3ccc(Cl)cc3Cl)CC2(O)c2cc(F)c(Cl)cc2Cl)cc1 (configuration not stated) | 19 mm | 15 mm | 12.5 µg/mL (≈ 23.1 µM) | 24 mm | 18 mm | 6.25 µg/mL (≈ 11.5 µM) | 18 mm | 12.5 µg/mL (≈ 23.1 µM) | 12.5 µg/mL (≈ 23.1 µM) | 6.25 µg/mL (≈ 11.5 µM) | 6.25 µg/mL (≈ 11.5 µM) | 6.25 µg/mL (≈ 11.5 µM) | 18 mm | 6.25 µg/mL (≈ 11.5 µM) | 6.25 µg/mL (≈ 11.5 µM) | 16 mm | 20 mm | 18 mm | 6.25 µg/mL (≈ 11.5 µM) | 19 mm |
| COc1ccc(C2=NN(C(=O)COc3ccc(Cl)cc3Cl)C(O)(c3cc(F)c(Cl)cc3Cl)C2)cc1OC (configuration not stated) | – | 9 mm | 25 µg/mL (≈ 42.5 µM) | – | – | > 100 µg/mL | – | > 100 µg/mL | > 100 µg/mL | > 100 µg/mL | > 100 µg/mL | 12.5 µg/mL (≈ 21.2 µM) | 12 mm | 25 µg/mL (≈ 42.5 µM) | > 100 µg/mL | – | 14 mm | – | > 100 µg/mL | – |
| O=C(COc1ccc(Cl)cc1Cl)N1N=C(c2ccc(Cl)cc2)CC1(O)c1cc(F)c(Cl)cc1Cl (configuration not stated) | – | 10 mm | 25 µg/mL (≈ 44.4 µM) | 23 mm | – | 6.25 µg/mL (≈ 11.1 µM) | – | > 100 µg/mL | 25 µg/mL (≈ 44.4 µM) | > 100 µg/mL | 6.25 µg/mL (≈ 11.1 µM) | > 100 µg/mL | – | > 100 µg/mL | > 100 µg/mL | 10 mm | – | 12 mm | 12.5 µg/mL (≈ 22.2 µM) | – |
| COc1ccc(C2=NN(C(=O)COc3ccc(Cl)cc3)C(O)(c3cc(F)c(Cl)cc3Cl)C2)cc1 (configuration not stated) | 19 mm | 18 mm | 12.5 µg/mL (≈ 23.9 µM) | 22 mm | 19 mm | 6.25 µg/mL (≈ 11.9 µM) | 18 mm | 12.5 µg/mL (≈ 23.9 µM) | 12.5 µg/mL (≈ 23.9 µM) | 6.25 µg/mL (≈ 11.9 µM) | 6.25 µg/mL (≈ 11.9 µM) | 6.25 µg/mL (≈ 11.9 µM) | 20 mm | 6.25 µg/mL (≈ 11.9 µM) | 6.25 µg/mL (≈ 11.9 µM) | 18 mm | 21 mm | 19 mm | 6.25 µg/mL (≈ 11.9 µM) | 19 mm |

— ChEMBL document CHEMBL1144479, “Synthesis and antimicrobial studies on novel chloro-fluorine containing hydroxy pyrazolines” (2007)
